From patent US20100160401A1, “4-PHENYLIMIDAZOLE-2-THIONE TYROSINASE INHIBITORS AND TREATMENT OR PREVENTION OF PIGMENTARY DISORDERS THEREWITH” (GALDERMA RESEARCH & DEVELOPMENT, BIOT, FRANCE, priority 2007, published 2010)

These compounds were tested against T1, tyrosinase (Mus musculus, UniProt P11344) (assay: Tyrosinase activity inhibition assay (B16F1 cell lysate, L-tyrosine substrate, MBTH trapping, absorbance 520 nm)). Details: lysate of B16F1 cells (murine melanoma line) as tyrosinase source, 37° C., reading at 520 nm after 6 hours, read-out: Tyrosine hydroxylase/Dopa oxidase IC50.
T1 construct: the supernatant obtained constitutes the cell lysate used as tyrosinase source in the enzymatic assay; endogenous in cells; host or cells: B16F1 murine melanoma cells, cultured with alpha-MSH, lysed in 1% Igepal and sonicated; the supernatant was used
T1 sequence (P11344 19-533): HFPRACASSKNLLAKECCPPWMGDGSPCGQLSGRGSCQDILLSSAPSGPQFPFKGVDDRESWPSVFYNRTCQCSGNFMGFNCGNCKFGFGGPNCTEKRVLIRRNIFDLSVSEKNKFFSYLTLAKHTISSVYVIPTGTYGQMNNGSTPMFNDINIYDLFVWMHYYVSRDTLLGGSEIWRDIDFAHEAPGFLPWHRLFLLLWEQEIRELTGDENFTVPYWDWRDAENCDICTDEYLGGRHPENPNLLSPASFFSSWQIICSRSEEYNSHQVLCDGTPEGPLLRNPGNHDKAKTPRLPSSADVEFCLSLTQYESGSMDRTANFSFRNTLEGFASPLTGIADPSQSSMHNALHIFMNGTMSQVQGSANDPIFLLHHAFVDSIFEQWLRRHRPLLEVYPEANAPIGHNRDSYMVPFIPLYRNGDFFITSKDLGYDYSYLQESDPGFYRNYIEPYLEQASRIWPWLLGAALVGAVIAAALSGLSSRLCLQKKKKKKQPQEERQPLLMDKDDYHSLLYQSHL
Type: biochemical
Protocol: The activity of the inhibitors is measured starting from a lysate of B16F1 cells (murine melanoma line). In the presence of the L-tyrosine substrate, the tyrosinase present in these cells catalyses the hydroxylation of L-tyrosine to give L-DOPA and then the oxidation of the L-DOPA to give dopaquinone. In the presence of MBTH (3-methyl-2-benzothiazolinone hydrazone), the dopaquinone is trapped so as to form a pink complex which absorbs at 520 nm.
The B16F1 cells are cultured in DMEM medium+10% foetal calf serum+10^−9 M α-MSH for 4 days at 37° C. under 7% CO2. They are treated with trypsin, washed with PBS, counted and pelleted. The pellet is taken up at 10^7 cells/ml in lysis buffer (10 mM sodium phosphate, pH 6.8-1% Igepal) and the suspension is treated with ultrasound for 10 seconds. After centrifugation for 30 minutes at 4000 rpm, the supernatant obtained constitutes the cell lysate used as tyrosinase source in the enzymatic assay.
The assays are carried out in duplicate in 384-well plates in a total volume of 50 μl. Each well contains:
40 μl of solution containing 1.25 mM L-tyrosine, 6.25 μM L-DOPA (cofactor) and 3.75 mM MBTH in buffer B (62.25 mM sodium phosphate, pH 6.8-2.5% dimethylformamide),
5 μl of inhibitor diluted in DMSO,
5 μl of cell lysate diluted to ½ in 50 mM Tris HCl buffer, pH 7.5.
The plate is incubated at 37° C. and a spectrophotometric reading is carried out at 520 nm after incubating for 6 hours. To avoid any possible absorption of the products, the system uses corrected absorbance (absorbance at time 6 h absorbance at time zero).
The inhibitors are assayed in terms of dose-response so as to calculate an IC50 (dose which inhibits 50% of the enzymatic activity).
Several internal controls are added to each experiment:
control for 100% activity: the 5 μl of inhibitor are replaced with 5 μl of DMSO,
control for 50% activity: the 5 μl of inhibitor are replaced with 5 μl of phenylthiourea at 300 μM in DMSO,
control for 0% activity: the L-tyrosine substrate is replaced with buffer B.

IC50	Structure (SMILES)
250 nM	Sc1nc(-c2ccccc2)c[nH]1 [Compound 1, 4-phenyl-1,3-dihydroimidazole-2-thione]
900 nM	COc1ccc(-c2c[nH]c(=S)[nH]2)cc1 [Compound 3, 4-(4-methoxyphenyl)-1,3-dihydroimidazole-2-thione]
3000 nM	S=c1[nH]cc(-c2cccc(Br)c2)[nH]1 [Compound 4, 4-(3-bromophenyl)-1,3-dihydroimidazole-2-thione]
300 nM	Fc1ccc(-c2c[nH]c(=S)[nH]2)cc1 [Compound 8, 4-(4-fluorophenyl)-1,3-dihydroimidazole-2-thione]
600 nM	Cc1ccc(-c2cnc(S)[nH]2)cc1 [Compound 13, 4-(4-methylphenyl)-1,3-dihydroimidazole-2-thione]
